Like-named read-outs stand apart in the source and are kept apart here. Marks after values point to notes of the source that are not given here.
Key:
Uromyces appendiculatus = experiment: In vivo preventive test on Uromyces appendiculatus (bean rust); settings: bean plants, preventive spray, evaluated 11 days after inoculation
Experimental: (§1) The young plants of bean are treated by spraying the active ingredient prepared as described above. Control plants are treated only with an aqueous solution of acetone/Dimethyl sulfoxide/Tween®. After 24 hours, the plants are contaminated by spraying the leaves with an aqueous suspension of Uromyces appendiculatus spores.

Sphaerotheca fuliginea = experiment: In vivo preventive test on Sphaerotheca fuliginea (powdery mildew on cucurbits); settings: gherkin plants, preventive spray, evaluated 15 days after inoculation
Experimental: as §1, with “gherkin” for “bean”, “Sphaerotheca fuliginea” for “Uromyces appendiculatus”

Botrytis cinerea = experiment: In vivo preventive test on Botrytis cinerea (grey mould); settings: 100 ppm of active ingredient; gherkin plants, preventive spray; evaluated 4 to 5 days after inoculation
Experimental: as §1, with “gherkin” for “bean”, “Botrytis cinerea” for “Uromyces appendiculatus”, “spores. The contaminated gherkin plants are incubated for 4 to 5 days at 17° C. and at 90% relative humidity.” for “spores.”

Septoria tritici = experiment: In vivo preventive test on Septoria tritici (leaf spot on wheat); settings: 500 ppm of active ingredient; wheat plants, preventive spray; evaluated 24 days after inoculation
Experimental: as §1, with “wheat” for “bean”, “Septoria tritici” for “Uromyces appendiculatus”

Pyrenophora teres = experiment: In vivo preventive test on Pyrenophora teres (net blotch on barley); settings: 500 ppm of active ingredient; barley plants, preventive spray; evaluated 14 days after inoculation
Experimental: as §1, with “barley” for “bean”, “Pyrenophora teres” for “Uromyces appendiculatus”

Puccinia recondita = experiment: In vivo preventive test on Puccinia recondita (brown rust on wheat); settings: 500 ppm of active ingredient; wheat plants, preventive spray; evaluated 11 days after inoculation
Experimental: as §1, with “wheat” for “bean”, “Puccinia recondita” for “Uromyces appendiculatus”

[1] = method [a]: LC-MS at pH 2.7, 0.1% formic acid in water / acetonitrile gradient
[2] = method [b]: LC-MS at pH 7.8, 0.001 molar ammonium hydrogen carbonate in water / acetonitrile gradient

SMILES	LogP (pH 2.7)	LogP [1]	also measured
CC(C)(C)C(O)(Cc1cnc2ccccc2c1)Cn1cncn1 (centres unmarked) [Example I-1]	1.18^[a]		
CC(C)(C)C(O)(Cc1ccc(Cl)nc1)Cn1cncn1 (centres unmarked) [Example I-2]	1.98^[b]; 1.98^[a]		LogP (pH 7.8): 1.98^[b]; 1.98^[a]; Eff. % (Uromyces appendiculatus; 500 ppm of active ingredient): 77%; Eff. % (Sphaerotheca fuliginea; 500 ppm of active ingredient): 98%
CC(C)(C)C(O)(Cc1ccc2ccccc2n1)Cn1cncn1 (centres unmarked) [Example I-8]		1.51^[a]	Eff. % (Sphaerotheca fuliginea; 100 ppm of active ingredient): 79%
CC(C)(C)C(O)(Cc1cc(Cl)nc(Cl)c1)Cn1cncn1 (centres unmarked) [Example I-9]	2.64^[a]		Eff. % (Sphaerotheca fuliginea; 100 ppm of active ingredient): 97%
CC(C)(C)C(O)(Cc1ccnc2ccccc12)Cn1cncn1 (centres unmarked) [Example I-10]	1.17^[a]		Eff. % (Uromyces appendiculatus; 100 ppm of active ingredient): 85%; Eff. % (Sphaerotheca fuliginea; 100 ppm of active ingredient): 97%
CC(C)(C)C(O)(Cc1cc(Cl)cc(Cl)n1)Cn1cncn1 (centres unmarked) [Example I-11]	2.86^[a]		
CC(C)(C)C(O)(Cc1ccc(Cl)c(Cl)n1)Cn1cncn1 (centres unmarked) [Example I-12]	2.78^[a]		
CC(C)(C)C(O)(Cc1cccc(Cl)n1)Cn1cncn1 (centres unmarked) [Example I-13]	2.30^[a]		
CCC(C)(C)C(O)(Cc1ccnc(Cl)c1)Cn1cncn1 (centres unmarked) [Example I-14]	2.27^[a]		Eff. % (Botrytis cinerea): 87%; Eff. % (Sphaerotheca fuliginea; 100 ppm of active ingredient): 100%
CC(C)(C)C(O)(Cc1ccnc(Cl)c1)Cn1cncn1 (centres unmarked) [Example I-15]	1.93^[a]		Eff. % (Uromyces appendiculatus; 100 ppm of active ingredient): 91%; Eff. % (Sphaerotheca fuliginea; 100 ppm of active ingredient): 100%
CC(C)(C)C(O)(Cc1cc(Cl)ncc1F)Cn1cncn1 (centres unmarked) [Example I-16]	2.16^[a]		Eff. % (Uromyces appendiculatus; 100 ppm of active ingredient): 84%; Eff. % (Sphaerotheca fuliginea; 100 ppm of active ingredient): 100%
CC(C)(C)C(O)(Cc1cncc(Cl)n1)Cn1cncn1 (centres unmarked) [Example I-17]	1.89^[a]		
CC(C)(C)C(O)(Cc1nccnc1Cl)Cn1cncn1 (centres unmarked) [Example I-18]	2.01^[a]		
Cc1ncc(CC(O)(Cn2cncn2)C(C)(C)C)nc1Cl (centres unmarked) [Example I-19]	2.10^[a]		
Cc1cnc(CC(O)(Cn2cncn2)C(C)(C)C)c(Cl)n1 (centres unmarked) [Example I-20]	2.21^[a]		
CC(C)(C)C(O)(Cc1cnccn1)Cn1cncn1 (centres unmarked) [Example I-21]	1.39^[a]		
CC(C)(C)C(O)(Cc1cc(Cl)ccn1)Cn1cncn1 (centres unmarked) [Example I-22]	1.87^[a]		
Cc1cccc(CC(O)(Cn2cncn2)C(C)(C)C)n1 (centres unmarked) [Example I-23]	0.63^[a]		
CCOC(=O)OC(Cc1cccnc1Cl)(Cn1cncn1)C(C)(C)C (centres unmarked) [Example I-24]	2.67		Eff. % (Septoria tritici): 100%; Eff. % (Pyrenophora teres): 75%; LogP (pH 7.8): 2.56; Eff. % (Uromyces appendiculatus; 500 ppm of active ingredient): 97%; Eff. % (Puccinia recondita): 86%; Eff. % (Sphaerotheca fuliginea; 500 ppm of active ingredient): 100%
CC(C)(C)C(O)(Cc1cncc(Oc2ccc(Cl)cc2)n1)Cn1cncn1 (centres unmarked) [Example I-25]	2.98^[a]		Eff. % (Puccinia recondita): 71%
COC(C)(C)C(O)(Cc1ccncc1Cl)Cn1cncn1 (centres unmarked) [Example I-26]	1.48^[a]		Eff. % (Septoria tritici): 97%; Eff. % (Pyrenophora teres): 71%; Eff. % (Uromyces appendiculatus; 500 ppm of active ingredient): 100%; Eff. % (Puccinia recondita): 89%; Eff. % (Sphaerotheca fuliginea; 500 ppm of active ingredient): 100%
CC(C)(C)C(O)(Cc1c(Cl)cncc1Cl)Cn1cncn1 (centres unmarked) [Example I-28]	2.34^[a]		
CC(C)CCC(O)(Cc1ccncc1Cl)Cn1cncn1 (centres unmarked) [Example I-31]	2.00^[a]		Eff. % (Septoria tritici): 100%; Eff. % (Uromyces appendiculatus; 500 ppm of active ingredient): 96%; Eff. % (Puccinia recondita): 89%; Eff. % (Sphaerotheca fuliginea; 500 ppm of active ingredient): 100%
CCOC(C)(C)C(O)(Cc1ccncc1Cl)Cn1cncn1 (centres unmarked) [Example I-32]	1.90		LogP (pH 7.8): 2.04; Eff. % (Uromyces appendiculatus; 500 ppm of active ingredient): 99%; Eff. % (Puccinia recondita): 83%; Eff. % (Sphaerotheca fuliginea; 500 ppm of active ingredient): 98%
CC(C)(C)C(O)(Cc1nc(Cl)ccc1Cl)Cn1cncn1 (centres unmarked) [Example I-33]	2.82^[a]		
CC(C)(C)C(=O)Cc1ncc(Cl)cc1Cl [Example V-1]		3.33^[a]	

SMILES	LogP (pH 2.7)	LogP [1]	also measured
CC(C)(C)C(=O)Cc1cnc2ccccc2c1 [Example V-2]		1.60^[a]	
CC(C)(C)C(=O)Cc1ccc(Cl)nc1 [Example V-3]		2.47^[a]	
CCC(C)(CC)C(=O)Cc1ccncc1Cl [Example V-5]		3.04^[a]	
CC(C)C(C)(C)C(=O)Cc1ccncc1Cl [Example V-6]		3.00^[a]	
CC(C)(C)C(=O)Cc1cccnc1 [Example V-7]		0.41	LogP [2]: 1.71
CC(C)(C)C(=O)Cc1ccncc1 [Example V-8]		0.35	LogP [2]: 1.75
CC(C)(C)C1(Cc2ncc(Cl)cc2Cl)CO1 (centres unmarked) [XII-1]		4.06^[a]	
CC(C)(C)C1(Cc2cnc3ccccc3c2)CO1 (centres unmarked) [XII-2]		1.86^[a]	
CC(C)(C)C1(Cc2ccncc2F)CO1 (centres unmarked) [XII-7]		2.31^[a]	
CCC(C)(C)C1(Cc2ccncc2F)CO1 (centres unmarked) [XII-8]		2.76^[a]	
CC(C)C(C)(C)C1(Cc2ccncc2F)CO1 (centres unmarked) [XII-9]		3.19^[a]	
CCC(C)(C)C1(Cc2ccnc(Cl)c2)CO1 (centres unmarked) [XII-10]		3.51^[a]	
CC(C)C(C)(C)C1(Cc2ccnc(Cl)c2)CO1 (centres unmarked) [XII-11]		3.94^[a]	
CC(C)(C)C1(Cc2ccnc(Cl)c2)CO1 (centres unmarked) [XII-12]		3.06^[a]	
CC(C)C(C)(C)C1(Cc2cc(Cl)ncc2F)CO1 (centres unmarked) [XII-13]		4.34^[a]	
CCC(C)(C)C1(Cc2cc(Cl)ncc2F)CO1 (centres unmarked) [XII-14]		3.89^[a]	
CC(C)(C)C1(Cc2cc(Cl)ncc2F)CO1 (centres unmarked) [XII-15]		3.42^[a]	
CC(C)C(C)(C)C1(Cc2ccncc2Cl)CO1 (centres unmarked) [XII-16]		3.75^[a]	
CCC(C)(C)C1(Cc2ccncc2Cl)CO1 (centres unmarked) [XII-17]		3.33^[a]	
CC(C)(C)C1(Cc2cc(F)ncc2Cl)CO1 (centres unmarked) [XII-18]		3.65^[a]	
CCC(C)(C)C1(Cc2cc(F)ncc2Cl)CO1 (centres unmarked) [XII-19]		4.17^[a]	
CC(C)(C)C1(Cc2ccnc(Cl)c2F)CO1 (centres unmarked) [XII-20]		3.37^[a]	
CC(C)(C)C1(Cc2c(Cl)cncc2Cl)CO1 (centres unmarked) [XII-21]		3.89^[a]	
CCC(C)(C)C1(Cc2c(Cl)cncc2Cl)CO1 (centres unmarked) [XII-22]		4.41^[a]	
CCCC(C)(C)C1(Cc2ccncc2Cl)CO1 (centres unmarked) [XII-23]		2.03^[a]	
